Patent US9849130B2 (KamTek, Inc., priority 2014, dated 2017)
Values after ≈ are worked out from the molar mass of the structure shown.

What was measured:
Fusobacterium = assay: MIC by microdilution in Brucella broth against Fusobacterium; assay type: cell-based, Fusobacterium spp.; settings: Brucella broth
Enterococci faecium = assay: MIC by microdilution in Mueller-Hinton broth against Enterococci faecium strains; assay type: cell-based, Enterococcus faecium; settings: Mueller-Hinton broth
C. perfringens MH310 = assay: microbe, parasite or virus in culture; assay type: cell-based; settings: C. perfringens MH310
Bifidobacterium strains = assay: MIC by microdilution in BHI broth against Bifidobacterium strains; assay type: cell-based, Bifidobacterium spp.; settings: BHI broth
Bacteroides Strains = assay: MIC by microdilution in Brucella broth against Bacteroides strains; assay type: cell-based, Bacteroides spp.
Enterococcus faecalis = assay: MIC by microdilution in Mueller-Hinton broth against Enterococcus faecalis strains; assay type: cell-based
Escherichia coli strains = assay: MIC by microdilution in Mueller-Hinton broth against Escherichia coli strains; assay type: cell-based; settings: for MIC: Mueller-Hinton broth
[1] = tested on: Clostridium difficile (CD) strains; assay: microbe, parasite or virus in culture; assay type: cell-based
Lactobacillus strains = assay: MIC against Lactobacillus strains; assay type: cell-based, Lactobacillus spp.; settings: broth microdilution, BHI with 0.02% Tween 80, pH 6.0
[2] = tested on: Lachnospiraceae and related bacterial strains; assay: MIC against Lachnospiraceae and related bacterial strains; assay type: cell-based, Lachnospiraceae spp.; settings: broth microdilution, brucella broth

Compound: CCN=c1cc2n(-c3cccc(C(F)(F)F)c3)c3ccccc3nc-2cc1Nc1cccc(C(F)(F)F)c1 [B4129]
- MIC (Fusobacterium; F. nucleatum HM-75): >32 µg/mL
- MIC (Fusobacterium; F. nucleatum HM-260): >32 µg/mL
- MIC (Fusobacterium; F. nucleatum HM-992): >32 µg/mL
- MIC (Fusobacterium; F. nucleatum HM-993): 8 µg/mL (≈ 15.2 µM)
- MIC (Fusobacterium; F. nucleatum HM-994): >32 µg/mL
- MIC (Fusobacterium; F. nucleatum HM-995): >32 µg/mL
- MIC (Fusobacterium; F. nucleatum HM-996): >32 µg/mL
- MIC (Fusobacterium; F. nucleatum HM-997): >32 µg/mL
- MIC (Fusobacterium; Fusobacterium sp. HM 42): >32 µg/mL
- MIC (Fusobacterium; Fusobacterium sp. HM 57): >32 µg/mL
- MIC (Fusobacterium; Fusobacterium sp. HM-556): >32 µg/mL
- MIC (Fusobacterium; Fusobacterium sp. HM-758): >32 µg/mL
- MIC (Fusobacterium; Fusobacterium sp. HM-871): >32 µg/mL
- MIC (Fusobacterium; Fusobacterium sp. HM-874): >32 µg/mL
- MIC (Fusobacterium; Fusobacterium sp. HM-875): >32 µg/mL
- MIC (Enterococci faecium; E. faecium NR 31903): >32 µg/mL
- MIC (Enterococci faecium; E. faecium NR 31909): >32 µg/mL
- MIC (Enterococci faecium; E. faecium NR 31912): >32 µg/mL
- MIC (Enterococci faecium; E. faecium NR 31915): >32 µg/mL
- MIC (Enterococci faecium; E. faecium NR 31916): >32 µg/mL
- MIC (C. perfringens MH310; BB): 0.25 µg/mL (≈ 0.475 µM)
- MIC (C. perfringens MH310; BHI): 2 µg/mL (≈ 3.8 µM)
- MIC (Bifidobacterium strains; Bifidobacterium adolescentis HM-633): >32 µg/mL
- MIC (Bifidobacterium strains; Bifidobacterium breve HM-411): >32 µg/mL
- MIC (Bifidobacterium strains; Bifidobacterium breve HM-412): 0.25 µg/mL (≈ 0.475 µM)
- MIC (Bifidobacterium strains; Bifidobacterium breve HM-856): >32 µg/mL
- MIC (Bifidobacterium strains; Bifidobacterium breve HM-1120): >32 µg/mL
- MIC (Bifidobacterium strains; Bifidobacterium longum HM-845): ≦0.031 μg/ml
- MIC (Bifidobacterium strains; Bifidobacterium longum HM-846): 0.25 µg/mL (≈ 0.475 µM)
- MIC (Bifidobacterium strains; Bifidobacterium longum HM-847): 2 µg/mL (≈ 3.8 µM)
- MIC (Bifidobacterium strains; Bifidobacterium sp. HM-30): 4 µg/mL (≈ 7.6 µM)
- MIC (Bifidobacterium strains; Bifidobacterium sp. HM-868): >32 µg/mL
- MIC (Bacteroides Strains; B. caccae HM728): 2 µg/mL (≈ 3.8 µM)
- MIC (Bacteroides Strains; B. eggerthii HM210): 2 µg/mL (≈ 3.8 µM)
- MIC (Bacteroides Strains; B. fragilis HM709): 2 µg/mL (≈ 3.8 µM)
- MIC (Bacteroides Strains; B. fragilis HM710): 2 µg/mL (≈ 3.8 µM)
- MIC (Bacteroides Strains; B. fragilis HM714): 4 µg/mL (≈ 7.6 µM)
- MIC (Bacteroides Strains; B. ovatus HM222): 0.25 µg/mL (≈ 0.475 µM)
- MIC (Bacteroides Strains; B. spp. HM18): 16 µg/mL (≈ 30.4 µM)
- MIC (Bacteroides Strains; B. spp. HM19): 0.5 µg/mL (≈ 0.95 µM)
- MIC (Bacteroides Strains; B. spp. HM20): 2 µg/mL (≈ 3.8 µM)
- MIC (Bacteroides Strains; B. spp. HM22): 2 µg/mL (≈ 3.8 µM)
- MIC (Bacteroides Strains; B. spp. HM23): 16 µg/mL (≈ 30.4 µM)
- MIC (Bacteroides Strains; B. spp. HM27): 1 µg/mL (≈ 1.9 µM)
- MIC (Bacteroides Strains; B. spp. HM28): 2 µg/mL (≈ 3.8 µM)
- MIC (Bacteroides Strains; B. spp. HM58): 2 µg/mL (≈ 3.8 µM)
- MIC (Bacteroides Strains; B. stercoris HM1036): 0.25 µg/mL (≈ 0.475 µM)
- MIC (Enterococcus faecalis; E. faecalis NR 31884): >32 µg/mL
- MIC (Enterococcus faecalis; E. faecalis NR 31885): >32 µg/mL
- MIC (Enterococcus faecalis; E. faecalis NR 31886): >32 µg/mL
- MIC (Enterococcus faecalis; E. faecalis NR 31887): >32 µg/mL
- MIC (Enterococcus faecalis; E. faecalis NR 31888): >32 µg/mL
- activity against E. coli (in words) (Escherichia coli strains): relatively inactive
- MIC (Escherichia coli strains; Escherichia coli strain NR 6): >32 µg/mL
- MIC (Escherichia coli strains; Escherichia coli strain NR 8): >32 µg/mL
- MIC (Escherichia coli strains; Escherichia coli strain NR 96): >32 µg/mL
- MIC (Escherichia coli strains; Escherichia coli strain NR 104): >32 µg/mL
- MIC (Escherichia coli strains; Escherichia coli strain NR 17626): >32 µg/mL
- MIC (Escherichia coli strains; Escherichia coli strain NR 17627): >32 µg/mL
- MIC (Escherichia coli strains; Escherichia coli strain NR 17633): >32 µg/mL
- MIC (Escherichia coli strains; Escherichia coli strain NR 17647): >32 µg/mL
- MIC (Escherichia coli strains; Escherichia coli strain NR 17650): >32 µg/mL
- MIC (Escherichia coli strains; Escherichia coli strain NR 17661): >32 µg/mL
- antibacterial activity against CD, fold greater than MET [1]: 32 fold
- antibacterial activity against CD, fold greater than VAN [1]: 16 fold
- MIC ([1]; CD strain BAA1805 (hyper-virulent strain BI/NAP1/027), BB): 0.062 µg/mL (≈ 0.118 µM)
- MIC50 ([1]; n = 37): ≦0.031 μg/ml
- MIC90 ([1]; n = 37): 0.125 µg/mL (≈ 0.237 µM)
- MIC Range ([1]; n = 37): ≦0.031-0.25 μg/ml
- MIC (Lactobacillus strains; Lactobacillus crispatus HM-637): 16 µg/mL (≈ 30.4 µM)
- MIC (Lactobacillus strains; Lactobacillus gasseri HM-104): >32 µg/mL
- MIC (Lactobacillus strains; Lactobacillus iners HM-126): 1 µg/mL (≈ 1.9 µM)
- MIC (Lactobacillus strains; Lactobacillus jensenii HM-105): >32 µg/mL
- MIC (Lactobacillus strains; Lactobacillus jhonsonii HM-643): >32 µg/mL
- MIC (Lactobacillus strains; Lactobacillus reuteri HM-102): >32 µg/mL
- MIC (Lactobacillus strains; Lactobacillus rhamnosus HM-106): >32 µg/mL
- MIC (Lactobacillus strains; Lactobacillus sp. HM-228): 1 µg/mL (≈ 1.9 µM)
- MIC (Lactobacillus strains; Lactobacillus sp. HM-478): >32 µg/mL
- MIC (Lactobacillus strains; Lactobacillus vaginalis HM-405): 2 µg/mL (≈ 3.8 µM)
- MIC ([2]; Clostridiales bacterium HM-84): ≦0.031 μg/ml
- MIC ([2]; Clostridiales bacterium HM-182): 0.125 µg/mL (≈ 0.237 µM)
- MIC ([2]; Eubacterium sp. HM-178): 0.125 µg/mL (≈ 0.237 µM)
- MIC ([2]; Lachnospiraceae sp. HM-7): ≦0.031 μg/ml
- MIC ([2]; Lachnospiraceae sp. HM-150): 0.125 µg/mL (≈ 0.237 µM)
- MIC ([2]; Lachnospiraceae sp. HM-153): 0.125 µg/mL (≈ 0.237 µM)
- MIC ([2]; Lachnospiraceae sp. HM-154): 0.125 µg/mL (≈ 0.237 µM)
- MIC ([2]; Lachnospiraceae sp. HM-157): 0.25 µg/mL (≈ 0.475 µM)
- MIC ([2]; Lachnospiraceae sp. HM-161): 0.125 µg/mL (≈ 0.237 µM)
- MIC ([2]; Lachnospiraceae sp. HM-480): 0.062 µg/mL (≈ 0.118 µM)
- MIC ([2]; Lachnospiraceae sp. HM-558): 0.125 µg/mL (≈ 0.237 µM)
- MIC ([2]; Lachnospiraceae sp. HM-768): ≦0.031 μg/ml
- MIC ([2]; Lachnospiraceae sp. HM-868): >32 µg/mL
- MIC ([2]; Peptostreptococcaceae sp. HM-766): 0.5 µg/mL (≈ 0.95 µM)
